Experimental data: the NIST ThermoML archive (doi:10.1021/acs.jced.8b00132)
Where “and” joins values, the source holds several entries; their conditions need not be identical. Equal values may be shown once. Numbers after ± are expanded uncertainties.

Settings: Gas

O=C(C(F)(F)C(F)(F)F)C(F)(C(F)(F)F)C(F)(F)F [dodecafluoro-2-methylpentan-3-one]
Settings | thermal conductivity
499.7 K, 3616 kPa, transient hot wire | 0.03337 ± 0.0021 W/m/K
499.7 K, 4324 kPa, transient hot wire | 0.03528 ± 0.0022 W/m/K
499.7 K, 5590 kPa, transient hot wire | 0.03721 ± 0.00089 W/m/K
499.7 K, 35697 kPa, transient hot wire | 0.05683 ± 0.0014 W/m/K
499.7 K, 50253 kPa, transient hot wire | 0.06228 ± 0.0016 W/m/K
499.7 K, 50292 kPa, transient hot wire | 0.06274 ± 0.0016 W/m/K
499.71 K, 3616 kPa, transient hot wire | 0.03339 ± 0.0021 W/m/K
499.71 K, 25604 kPa, transient hot wire | 0.05236 ± 0.0013 W/m/K
499.72 K, 3288 kPa, transient hot wire | 0.03208 ± 0.002 W/m/K
499.72 K, 4324 kPa, transient hot wire | 0.03516 ± 0.0022 W/m/K
499.72 K, 18413 kPa, transient hot wire | 0.04809 ± 0.0012 W/m/K
499.73 K, 643 kPa, hot wire | 0.02734 ± 0.0013 W/m/K and 0.02744 ± 0.0013 W/m/K
499.73 K, 4855 kPa, transient hot wire | 0.03606 ± 0.00086 W/m/K and 0.03623 ± 0.00086 W/m/K
499.73 K, 18416 kPa, transient hot wire | 0.04833 ± 0.0012 W/m/K
499.73 K, 35665 kPa, transient hot wire | 0.05687 ± 0.0014 W/m/K
499.74 K, 3288 kPa, transient hot wire | 0.03222 ± 0.002 W/m/K
499.74 K, 3937 kPa, transient hot wire | 0.03429 ± 0.0021 W/m/K
499.74 K, 50254 kPa, transient hot wire | 0.06235 ± 0.0016 W/m/K
499.75 K, 418 kPa, hot wire | 0.02717 ± 0.0013 W/m/K
499.75 K, 2128 kPa, transient hot wire | 0.02829 ± 0.0017 W/m/K
499.75 K, 35673 kPa, transient hot wire | 0.05679 ± 0.0014 W/m/K
499.75 K, 35689 kPa, transient hot wire | 0.05686 ± 0.0014 W/m/K
499.75 K, 50278 kPa, transient hot wire | 0.06281 ± 0.0016 W/m/K
499.76 K, 417 kPa, hot wire | 0.02687 ± 0.0013 W/m/K
499.76 K, 1595 kPa, transient hot wire | 0.02727 ± 0.0009 W/m/K
499.76 K, 5594 kPa, transient hot wire | 0.03739 ± 0.00089 W/m/K
499.76 K, 25601 kPa, transient hot wire | 0.05218 ± 0.0013 W/m/K
499.76 K, 25602 kPa, transient hot wire | 0.05226 ± 0.0013 W/m/K
499.76 K, 50255 kPa, transient hot wire | 0.06232 ± 0.0016 W/m/K
499.77 K, 1595 kPa, transient hot wire | 0.0273 ± 0.0009 W/m/K
499.77 K, 4324 kPa, transient hot wire | 0.03524 ± 0.0022 W/m/K
499.78 K, 5592 kPa, transient hot wire | 0.03734 ± 0.00089 W/m/K
499.79 K, 60 kPa, hot wire | 0.02624 ± 0.0012 W/m/K
499.79 K, 218 kPa, hot wire | 0.02627 ± 0.0012 W/m/K
499.79 K, 2953 kPa, transient hot wire | 0.03092 ± 0.0019 W/m/K
499.79 K, 3618 kPa, transient hot wire | 0.03355 ± 0.0021 W/m/K
499.79 K, 4324 kPa, transient hot wire | 0.03534 ± 0.0022 W/m/K
499.79 K, 35664 kPa, transient hot wire | 0.05692 ± 0.0014 W/m/K
499.79 K, 50251 kPa, transient hot wire | 0.06211 ± 0.0016 W/m/K
499.8 K, 60 kPa, hot wire | 0.02618 ± 0.0012 W/m/K
499.8 K, 217 kPa, hot wire | 0.02613 ± 0.0012 W/m/K
499.8 K, 869 kPa, transient hot wire | 0.02693 ± 0.0016 W/m/K and 0.02695 ± 0.0017 W/m/K
499.8 K, 2952 kPa, transient hot wire | 0.03103 ± 0.0019 W/m/K
499.8 K, 3936 kPa, transient hot wire | 0.03437 ± 0.0021 W/m/K
499.8 K, 4855 kPa, transient hot wire | 0.03629 ± 0.00086 W/m/K
499.81 K, 2569 kPa, transient hot wire | 0.0294 ± 0.0018 W/m/K
499.81 K, 3287 kPa, transient hot wire | 0.0325 ± 0.002 W/m/K and 0.03233 ± 0.002 W/m/K
499.81 K, 3936 kPa, transient hot wire | 0.03445 ± 0.0021 W/m/K
499.81 K, 35680 kPa, transient hot wire | 0.05678 ± 0.0014 W/m/K
499.81 K, 35689 kPa, transient hot wire | 0.05675 ± 0.0014 W/m/K
499.81 K, 50253 kPa, transient hot wire | 0.06239 ± 0.0016 W/m/K
499.82 K, 2568 kPa, transient hot wire | 0.02959 ± 0.0018 W/m/K
499.82 K, 35681 kPa, transient hot wire | 0.05686 ± 0.0014 W/m/K
499.83 K, 646 kPa, transient hot wire | 0.02724 ± 0.0017 W/m/K
499.83 K, 647 kPa, transient hot wire | 0.02739 ± 0.0017 W/m/K
499.83 K, 13400 kPa, transient hot wire | 0.04508 ± 0.0011 W/m/K
499.84 K, 5595 kPa, transient hot wire | 0.03734 ± 0.00089 W/m/K
499.84 K, 13403 kPa, transient hot wire | 0.04494 ± 0.0011 W/m/K
499.84 K, 18418 kPa, transient hot wire | 0.04825 ± 0.0012 W/m/K
499.85 K, 3618 kPa, transient hot wire | 0.0337 ± 0.0021 W/m/K
499.85 K, 4324 kPa, transient hot wire | 0.03554 ± 0.0022 W/m/K
499.85 K, 25604 kPa, transient hot wire | 0.05216 ± 0.0013 W/m/K
499.85 K, 35654 kPa, transient hot wire | 0.05672 ± 0.0014 W/m/K
499.86 K, 4325 kPa, transient hot wire | 0.03565 ± 0.0022 W/m/K
499.87 K, 5595 kPa, transient hot wire | 0.03732 ± 0.00089 W/m/K
499.87 K, 35670 kPa, transient hot wire | 0.05702 ± 0.0014 W/m/K
499.88 K, 1594 kPa, transient hot wire | 0.02746 ± 0.0009 W/m/K
499.88 K, 1595 kPa, transient hot wire | 0.02725 ± 0.00089 W/m/K
499.88 K, 2128 kPa, transient hot wire | 0.02824 ± 0.0017 W/m/K
499.88 K, 2952 kPa, transient hot wire | 0.03099 ± 0.0019 W/m/K
499.88 K, 3619 kPa, transient hot wire | 0.03371 ± 0.0021 W/m/K
499.88 K, 3936 kPa, transient hot wire | 0.03462 ± 0.0021 W/m/K
499.89 K, 422 kPa, transient hot wire | 0.02757 ± 0.0017 W/m/K
499.89 K, 2128 kPa, transient hot wire | 0.02826 ± 0.0017 W/m/K
499.89 K, 2952 kPa, transient hot wire | 0.03116 ± 0.0019 W/m/K
499.89 K, 3936 kPa, transient hot wire | 0.03474 ± 0.0021 W/m/K
499.89 K, 35669 kPa, transient hot wire | 0.05673 ± 0.0014 W/m/K
499.9 K, 421 kPa, transient hot wire | 0.02748 ± 0.0017 W/m/K
499.91 K, 2567 kPa, transient hot wire | 0.02946 ± 0.0018 W/m/K
499.91 K, 3287 kPa, transient hot wire | 0.03278 ± 0.002 W/m/K
499.91 K, 10172 kPa, transient hot wire | 0.0425 ± 0.001 W/m/K
499.91 K, 25600 kPa, transient hot wire | 0.05221 ± 0.0013 W/m/K
499.92 K, 6555 kPa, transient hot wire | 0.03863 ± 0.00092 W/m/K
499.92 K, 10173 kPa, transient hot wire | 0.0424 ± 0.001 W/m/K
